Data as given in patent publication US11897898B2, “Pyridine macrocycle compounds as ASK1 inhibiting agents” (BIOGEN MA INC., priority 2018, dated 2024).

The compounds below were run against T1, ASK1/MAP3K5 (Homo sapiens, UniProt Q99683) (assay: ASK1 enzyme assay (ASK1/MAP3K5 assay by Reaction Biology Corp., 33P-ATP filter-binding)). Conditions: 20 μM myelin basic protein and 10 μM ATP; class symbols.
T1 construct: purchased Reaction Biology Corp. (Malvern, Pa.)
T1 sequence (Q99683 1-1374): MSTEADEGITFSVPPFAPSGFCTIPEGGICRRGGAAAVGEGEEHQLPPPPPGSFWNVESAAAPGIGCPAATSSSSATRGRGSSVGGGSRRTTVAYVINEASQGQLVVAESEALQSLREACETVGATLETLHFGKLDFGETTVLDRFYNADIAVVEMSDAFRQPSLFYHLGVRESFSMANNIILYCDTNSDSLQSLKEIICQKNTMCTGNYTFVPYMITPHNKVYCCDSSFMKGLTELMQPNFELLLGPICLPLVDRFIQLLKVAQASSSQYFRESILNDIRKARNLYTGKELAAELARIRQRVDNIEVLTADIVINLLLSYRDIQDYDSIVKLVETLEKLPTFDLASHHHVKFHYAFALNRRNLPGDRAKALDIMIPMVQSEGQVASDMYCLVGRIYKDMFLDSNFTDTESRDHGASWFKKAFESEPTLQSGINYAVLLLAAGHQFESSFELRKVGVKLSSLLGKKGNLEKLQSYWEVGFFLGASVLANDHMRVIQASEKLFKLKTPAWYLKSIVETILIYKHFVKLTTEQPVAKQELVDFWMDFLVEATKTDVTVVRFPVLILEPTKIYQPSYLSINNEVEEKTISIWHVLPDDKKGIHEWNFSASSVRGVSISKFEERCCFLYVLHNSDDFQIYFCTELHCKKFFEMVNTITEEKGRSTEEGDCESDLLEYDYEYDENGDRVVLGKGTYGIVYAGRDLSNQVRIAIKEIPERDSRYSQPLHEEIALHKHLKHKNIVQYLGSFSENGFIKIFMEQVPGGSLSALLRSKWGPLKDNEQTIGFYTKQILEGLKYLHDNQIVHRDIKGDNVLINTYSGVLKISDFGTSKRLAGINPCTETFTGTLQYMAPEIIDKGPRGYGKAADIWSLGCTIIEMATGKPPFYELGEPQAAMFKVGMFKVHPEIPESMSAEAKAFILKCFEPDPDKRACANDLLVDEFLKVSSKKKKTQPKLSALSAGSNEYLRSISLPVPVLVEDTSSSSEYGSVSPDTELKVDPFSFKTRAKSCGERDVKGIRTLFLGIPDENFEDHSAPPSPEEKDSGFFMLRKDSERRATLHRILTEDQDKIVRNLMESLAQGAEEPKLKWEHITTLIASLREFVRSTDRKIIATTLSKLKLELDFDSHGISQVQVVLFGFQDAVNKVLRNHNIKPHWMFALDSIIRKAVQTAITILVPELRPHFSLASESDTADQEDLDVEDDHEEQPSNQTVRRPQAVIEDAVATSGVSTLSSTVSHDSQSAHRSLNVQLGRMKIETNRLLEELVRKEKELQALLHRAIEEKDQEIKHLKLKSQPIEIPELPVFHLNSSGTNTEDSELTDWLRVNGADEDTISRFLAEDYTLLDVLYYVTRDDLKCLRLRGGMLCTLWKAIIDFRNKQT
Format: biochemical
How it was run: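 Human ASK1/MAP3K5 in pH 7.5 Hepes buffer with 20 μM myelin basic protein and 10 μM 33P-ATP; compounds preincubated with kinase 20 min at room temperature. Reaction ran 2 h at room temperature; substrate phosphorylation measured by P81 filter binding.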

**Q.** For `C[C@H]1CCCOc2ncc(Br)cc2C(=O)Nc2cccc(n2)-c2nncn21` (single isomer, unassigned) [Compound 1], which IC50 is on record?
**A.** The IC50 was at most 100 nM.

**Q.** `C[C@H]1CCCOc2ncccc2C(=O)Nc2cccc(n2)-c2nncn21` (single isomer, unassigned) [Compound 4] was tested. Which IC50 did it give?
**A.** Its IC50 is at most 100 nM.

**Q.** How did the IC50 turn out when `C[C@H]1CCCOc2ncc(C(F)(F)F)cc2C(=O)Nc2cccc(n2)-c2nncn21` (single isomer, unassigned) [Compound 41] was run?
**A.** Its IC50 is at most 100 nM.

**Q.** With `C[C@H]1CCCOc2ncc(-c3ccncc3)cc2C(=O)Nc2cccc(n2)-c2nncn21` [Compound 17, (S)-10-Methyl-5^5-(pyridin-4-yl)-1^4H-6-oxa-3-aza-2(2,6),5(3,2)-dipyridina-1(3,4)-triazolacyclodecaphan-4-one] as the compound, how does the IC50 read?
**A.** Its IC50 is at most 100 nM.

**Q.** For `C[C@H]1CCCOc2ncc(C#N)cc2C(=O)Nc2cccc(n2)-c2nncn21` [Compound 38, (S)-10-Methyl-4-oxo-1^4H-6-oxa-3-aza-2(2,6),5(3,2)-dipyridina-1(3,4)-triazolacyclodecaphane-5^5-carbonitrile], which IC50 is on record?
**A.** Its IC50 is at most 100 nM.
